{"source": "patent US20150291659A1", "about": "“SOLOMONAMIDE ANALOGUE COMPOUNDS, PHARMACEUTICALS CONTAINING SOLOMONAMIDE ANALOGUE COMPOUNDS, AND PROCESSES FOR THE PREPARATION THEREOF” (COUNCIL OF SCIENTIFIC AND INDUSTRIAL RESEARCH, priority 2012, published 2015)", "origin": "cited, not measured here", "tested_on": "carrageenan induced paw edema", "conditions": "carrageenan induced paw edema model, animal-models, 100 μg/kg", "data": [{"smiles": "C[C@@H]1C(=O)NCC(=O)N[C@H](C)C(=O)Nc2cc(O)ccc2C(=O)[C@H](O)[C@@H](NC(=O)[C@@H](N)CO)[C@@H]1O", "note": "[Solomonamide A]", "values": [{"measurement": "reduction of inflammation", "result": "~60", "unit": "%"}]}]}
